Consider one compound from publication PMC7893202 (Acta Pharmaceutica Sinica. B, 2020).

pKd: −log10 of the molar value.

The test addresses T1, estrogen receptor-alpha (ERα) (Homo sapiens, UniProt P03372).
T1 sequence (P03372 311-547 limits assumed): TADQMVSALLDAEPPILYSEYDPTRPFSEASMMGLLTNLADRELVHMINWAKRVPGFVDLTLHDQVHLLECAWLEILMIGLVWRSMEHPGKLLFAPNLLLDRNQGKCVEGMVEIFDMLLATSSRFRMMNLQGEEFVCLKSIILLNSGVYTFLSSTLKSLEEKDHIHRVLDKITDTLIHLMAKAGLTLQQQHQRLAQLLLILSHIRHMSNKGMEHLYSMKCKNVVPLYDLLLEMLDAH
In words: fluorescence titration. The format is binding.

As usually defined, the pKd is −log10 of the Kd, conventionally taken in molar units. The low end stands for a large Kd, the high end for a small Kd.

In turn, `Cc1cc(O)cc2oc3cc(O)cc(O)c3c(=O)c12` [compound 1, norlichexanthone] showed a pKd of 8.00.
